{"source": "patent US12419961B2", "about": "(CNPharm Co., Ltd., priority 2021, dated 2025)", "key": {"pancreatic cancer": {"tested_on": "pancreatic cancer", "details": "pancreatic cancer patients, cited from earlier work"}, "L929": {"tested_on": "L929", "assay": "cell viability assay on L929 normal cell line", "type": "cell-based", "details": "FIG. 5B; normal mouse fibroblast cell line"}, "[1]": {"tested_on": "PANC-1 pancreatic carcinoma tumors", "assay": "anticancer efficacy in mouse xenograft model (tumor growth)", "type": "in vivo, BALB/c mice", "experimental": "(§1) Normally, non-treated group is injected with saline (NaCl solution) in anti-cancer efficacy study."}, "[2]": {"assay": "weight monitoring in mouse xenograft model", "type": "in vivo, BALB/c mice", "details": "FIG. 6B; PANC-1 model; dose: docetaxel standard, 20 mg/kg", "experimental": "as §1"}}}
{"molecule": "O=c1[nH]cc(F)c(=O)[nH]1", "note": "[5-FU, 5-fluorouracil]", "values": [{"measurement": "survival rate, gemcitabine compared to 5-FU", "setting": "pancreatic cancer", "result": 4.41, "unit": "months"}, {"measurement": "median overall survival rate compared to supportive care", "setting": "pancreatic cancer; supportive care 2.5 months", "result": 6, "unit": "moths"}]}
{"molecule": "CC(=O)O[C@@]12CO[C@@H]1C[C@H](O)[C@@]1(C)C(=O)[C@H](O)C3=C(C)[C@@H](OC(=O)[C@H](O)[C@@H](NC(=O)OC(C)(C)C)c4ccccc4)C[C@@](O)([C@@H](OC(=O)c4ccccc4)[C@H]21)C3(C)C", "note": "[DTX, docetaxel]", "values": [{"measurement": "cytotoxicity toward normal cell line L929", "setting": "L929", "result": "low cytotoxicity"}, {"measurement": "tumor growth (mean tumor volume)", "setting": "[1]; FIG. 6A; PANC-1 model; dose: docetaxel standard, 20 mg/kg; P<0.01 vs negative control", "result": "significant inhibition in tumor growth"}, {"measurement": "body weight loss", "setting": "[2]", "result": "significant body weight loss was observed"}]}
{"molecule": "Nc1ccn([C@@H]2O[C@H](CO)[C@@H](O)C2(F)F)c(=O)n1", "note": "[gemcitabine]", "values": [{"measurement": "survival rate, gemcitabine compared to 5-FU", "setting": "pancreatic cancer", "result": 5.65, "unit": "months"}]}
{"molecule": "docetaxel-aconitic anhydride conjugate [A3Tx]", "values": [{"measurement": "tumor growth (mean tumor volume)", "setting": "[1]; FIG. 6A, PANC-1 model, dose: docetaxel standard, 20 mg/kg, P<0.01 vs negative control", "result": "significant inhibition in tumor growth"}, {"measurement": "tumor growth (mean tumor volume)", "setting": "[1]; FIG. 6A, PANC-1 model, dose: docetaxel standard, 20 mg/kg, P<0.01 vs negative control, listed as A3TX", "result": "significantly delays tumor growth"}]}
